Laboratory results published in patent US20240173249A1, “COSMETIC COMPOSITION CONTAINING BEE POLLEN EXOSOME” (LG HOUSEHOLD & HEALTH CARE LTD., priority 2022, published 2024).

How the values were obtained:
Type in all cases: cell-based
[1] = system: Raw 264.7 cells; assay: NO production inhibition, LPS-treated cells, NO quantification kit; settings: positive control, 200 ppm
Procedure: In order to verify the skin soothing and anti-inflammatory effects of the bee pollen exosome raw material prepared in Preparation Example 2, the NO production inhibitory effect was measured as follows, and compared with those of the pollen extract raw material, the bee pollen extract raw material, and the plant-derived exosome raw material which are the control groups.
In detail, the NO production inhibitory effects of the above samples were measured using Raw 264.7 cells. As a positive control, 20 mg/ml L-NMMA1 (NOS inhibitor) was used, and the samples were diluted to 0.01% and 0.1% concentrations (v/v %) and treated for 30 minutes, followed by treatment with 1 μg/ml LPS and culturing for 24 hours. Then, the ability to inhibit NO production was evaluated using a NO quantification kit as follows. All results were expressed as mean±standard deviation (SD) after three or more independent experiments.
NO production inhibitory ability (%)=(1−([…] NO production amount with sample addition))/(NO production amount without sample addition)×100

[2] = system: human dermal fibroblast (HDF) cells; assay: Collagen synthesis efficacy (procollagen type I C-peptide EIA); settings: positive control, 10 ng/ml, compared to untreated group
Procedure: To verify the collagen synthesis effect of the bee pollen exosome raw material prepared in Preparation Example 2, measurements were performed as follows.
In detail, the collagen synthesis effect was evaluated using human dermal fibroblast (HDF) cells. After pre-treating the cells with the bee pollen exosome raw material sample for 48 hours, collagen synthesis efficacy was measured using a human procollagen type I C-peptide (PIP) EIA kit. The collagen synthesis efficacy of the sample was determined by calculating the increased value in percentage (%), as compared to the untreated control group, and the results are shown in a table. 10 ng/ml TGF-b was used as a positive control group.
All of the above samples were diluted to 0.01% and 0.1% concentrations (v/v %) and evaluated.

[3] = system: B16f10 melanocytes; assay: Melanin production inhibition in melanocytes; settings: Mus musculus, B16-F10, positive control, read-out: inhibition of melanin synthesis
Procedure: In order to verify the whitening effect of the bee pollen exosome raw material prepared in Preparation Example 2, the melanin production-inhibitory effect was measured as follows.
In detail, the whitening efficacy of the bee pollen exosome raw material was evaluated by measuring the degree of reduction in the amount of melanin pigment present in melanocytes. The bee pollen exosome raw material was diluted to 0.01% and 0.1% concentrations (v/v %), and B16f10 melanocytes were treated therewith, and cultured for 72 hours, and melanin was quantified to evaluate the whitening efficacy. The melanin content was calculated based on the total protein amount, and the melanin production inhibition rate was calculated as %, based on a DMSO control group. 200 ppm of arbutin was treated as a positive control group.
In detail, the bee pollen extract raw material was prepared by grinding the same amount of bee pollens in the same manner as in preparing the bee pollen exosome, and by extracting using a general low-temperature extraction method of using purified water for 24 hours to 72 hours under the same temperature conditions (4° C. to 25° C.). […]

In the case of `CNC(=N)NCCC[C@H](N)C(=O)O` [L-NMMA1], the “NO production inhibition ability” value [1] is reported as 59.17%.

“TGF-b: 10 ng/ml TGF-b used as positive control for collagen synthesis” showed a collagen synthesis increase [2] of 29.87%.

Work on `OC[C@H]1O[C@@H](Oc2ccc(O)cc2)[C@H](O)[C@@H](O)[C@@H]1O` [arbutin] yielded an inhibition at 200 ppm [3] of 38.1%.
